Measured values published in article PMC9532399, “The lysosomal transporter TAPL has a dual role as peptide translocator and phosphatidylserine floppase” (Nature Communications, 2022).
Positions count from the first letter of the chain named. Residues, ends and D or L forms follow the SMILES beside them. *: point of attachment. X1 = CC[N+]1=C(C=CC=CC=C2N(CCCCCC(=O)NCCN3C(=O)CC(*)C3=O)c3ccc(S(=O)(=O)[O-])cc3C2(C)C)C(C)(C)c2cc(S(=O)(=O)O)ccc21

What was measured:
[1] = target: T1, mouse TAPL ΔTMD0 (Mus musculus, UniProt Q9JJ59); test: NADH-coupled ATPase assay, nanodisc-reconstituted ΔTMD0; format: biochemical; conditions: POPE nanodiscs, data not shown
T1 construct: thrombin cleavage site (C); eGFP (C); 10XHis (C); made in house; host or cells: Trichoplusia ni High Five (Hi5) insect cells, baculovirus (pVL1393)
T1 sequence (Q9JJ59 143-762): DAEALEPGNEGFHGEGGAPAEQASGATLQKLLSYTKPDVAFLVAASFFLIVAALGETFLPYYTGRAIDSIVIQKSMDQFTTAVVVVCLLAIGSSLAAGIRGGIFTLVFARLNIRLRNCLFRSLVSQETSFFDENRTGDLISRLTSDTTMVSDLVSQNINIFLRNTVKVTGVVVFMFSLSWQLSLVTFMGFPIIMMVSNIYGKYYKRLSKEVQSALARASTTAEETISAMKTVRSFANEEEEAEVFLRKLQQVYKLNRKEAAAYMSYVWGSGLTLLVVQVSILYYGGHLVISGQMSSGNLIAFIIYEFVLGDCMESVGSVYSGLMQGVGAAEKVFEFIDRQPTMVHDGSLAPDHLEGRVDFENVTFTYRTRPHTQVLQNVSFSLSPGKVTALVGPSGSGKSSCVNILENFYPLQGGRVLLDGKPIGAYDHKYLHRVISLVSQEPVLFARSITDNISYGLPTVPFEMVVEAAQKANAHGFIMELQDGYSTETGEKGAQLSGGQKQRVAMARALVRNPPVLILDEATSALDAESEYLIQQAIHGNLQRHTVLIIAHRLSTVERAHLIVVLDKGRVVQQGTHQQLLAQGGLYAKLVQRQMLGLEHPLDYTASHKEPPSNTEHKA
Description: […] Each lipid was dissolved in 0.17% (w/v) DM and 0.017% (w/v) CHS and mixed with MSP1 and DM/CHS-purified ΔTMD0 at a molar ratio of 150:4:1. After incubation on ice for 10 min, the mixture was treated with 60 mg of Bio-beads (Bio-Rad) at 4 °C for 4 h to remove detergent. The supernatant was additionally incubated overnight with 120 mg of fresh Bio-Beads at 4 °C. The final supernatant was injected onto a Superdex 200 Increase 10/300 GL column equilibrated with a buffer of 20 mM HEPES–NaOH pH 7.5 and 200 mM NaCl. The elution fractions containing protein-loaded nanodiscs were pooled and used for cryo-EM and functional analyses.
The ATPase activities of proteins obtained after various purification procedures were determined by NADH-coupled spectrophotometric assays. 10 μg of DM-purified or nanodisc-reconstituted protein was added to 140 μL of reaction buffer containing 50 mM HEPES–KOH pH 8.0, 60 μg/mL pyruvate kinase (Roche), 16 μg/mL lactate dehydrogenase (Roche), 10 mM phosphoenolpyruvate (Roche), 0.3 mM NADH, 3 mM ATP, 10 mM MgCl2, and 0.17% (w/v) DM in the presence or absence of 250 μM peptide. […] ATP hydrolysis activity was monitored at 37 °C for 3 min by measuring the rate of decline of NADH absorbance at 340 nm. […] The kinetic parameters of ATP hydrolysis were calculated by fitting the initial rates of ATP hydrolysis to the Michaelis–Menten equation using PRISM 4.0 (GraphPad software).

[2] = Aggregation in ATPase reaction buffer; format: physicochemical; conditions: addition to the ATPase reaction buffer, data not shown
Description: The ATPase activities of proteins obtained after various purification procedures were determined by NADH-coupled spectrophotometric assays. 10 μg of DM-purified or nanodisc-reconstituted protein was added to 140 μL of reaction buffer containing 50 mM HEPES–KOH pH 8.0, 60 μg/mL pyruvate kinase (Roche), 16 μg/mL lactate dehydrogenase (Roche), 10 mM phosphoenolpyruvate (Roche), 0.3 mM NADH, 3 mM ATP, 10 mM MgCl2, and 0.17% (w/v) DM in the presence or absence of 250 μM peptide. For proteins reconstituted into nanodiscs, DM was not added to the reaction buffer. For lipid-stimulated ATPase assays, the thin film of lipids was hydrated in 100 μL of buffer containing 50 mM HEPES–KOH pH 8.0 and 10 mM MgCl2 to yield a 10 mM solution. After sonication of the lipid solution for 10 min to decrease its turbidity, the reaction was initiated by adding varying concentrations of lipids to the mixture. ATP hydrolysis activity was monitored at 37 °C for 3 min by measuring the rate of decline of NADH absorbance at 340 nm. To inhibit ATP hydrolysis, the reaction mixture was incubated with 3 mM AMP-PNP or 8 mM NaF/2 mM BeSO4 for 5 min at RT. The kinetic parameters of ATP hydrolysis were calculated by fitting the initial rates of ATP hydrolysis to the Michaelis–Menten equation using PRISM 4.0 (GraphPad software).

[3] = target: T2, TAPL Y405A mutant (Mus musculus, UniProt Q9JJ59, Y405A); test: Microscale thermophoresis, DM-purified Y405A; format: binding; conditions: Y405A vs wild-type
T2 construct: thrombin cleavage site (C); eGFP (C); 10XHis (C); made in house; host or cells: Trichoplusia ni High Five (Hi5) insect cells, baculovirus (pVL1393)
T2 sequence (Q9JJ59 143-762 Y405A): T1 sequence (Q9JJ59 143-762) with Y263A
Description: Binding of 9-mer peptide (RRYQNSTC^Cy-5L) to DM-purified ΔTMD0 was monitored by microscale thermophoresis as described previously. Briefly, 9-mer peptide was incubated with a 10x molar excess of Cy5 dye (Thermo Fisher Scientific) in 50 mM HEPES–NaOH pH 7.5 at RT for 2 h. The labeled peptide was purified from the excess dye with a desalting column. Cy5-labeled peptide (0.2 μM) was added to serial 2-fold dilutions of protein. The mixtures were incubated for 10 min at RT and loaded onto Monolith NT.115 standard-treated capillaries (NanoTemper Technologies). Thermophoretic movements were induced by infrared laser activation. Subsequent fluorescence changes were monitored with a Monolith NT.115 pico device and plotted against protein concentration. The results were analyzed with MO.Affinity Analysis software.

[4] = design: method as in PMID 11867457; conditions: cited from earlier work

With CCCCCCCC/C=C\CCCCCCCC(=O)O[C@H](COC(=O)CCCCCCCCCCCCCCC)COP(=O)(O)OCCN [POPE, 1-palmitoyl-2-oleoyl-sn-glycero-3-phosphoethanolamine] the “ΔTMD0 ATPase activity in nanodiscs” value [1] was “no ΔTMD0 activity was detected” and the “aggregation” value [2] was “caused nonspecific aggregation”.

In the case of CC[N+]1=C(C=CC=CC=C2N(CCCCCC(=O)NCCN3C(=O)CC(SC[C@H](NC(=O)[C@@H](NC(=O)[C@H](CO)NC(=O)[C@H](CC(N)=O)NC(=O)[C@H](CCC(N)=O)NC(=O)[C@H](Cc4ccc(O)cc4)NC(=O)[C@H](CCCNC(=N)N)NC(=O)[C@@H](N)CCCNC(=N)N)[C@@H](C)O)C(=O)N[C@@H](CC(C)C)C(=O)O)C3=O)c3ccc(S(=O)(=O)[O-])cc3C2(C)C)C(C)(C)c2cc(S(=O)(=O)O)ccc21 (stereo partly drawn) [RRYQNSTC^Cy-5L] (H-RRYQNSTC(X1)L-OH; N-terminus and C-terminus assumed), the “decrease in peptide affinity” value [3] is reported as 73 fold.

For CC(C)CCC[C@@H](C)[C@H]1CC[C@H]2[C@@H]3CC=C4C[C@@H](O)CC[C@]4(C)[C@H]3CC[C@]12C [cholesterol], the “time of spontaneous movement across the liposome bilayer” value [4] is listed as < 1 min.
